# Data taken from patent US8232407B2, “Nitrogenous heterocyclic compounds with insecticidal activity, and the preparation and use thereof” (East China University of Science and Technology, priority 2008, dated 2012).
# Key:
# [1] = test system: Aphis craccivoral; assay: Insecticidal activities to aphids, immersion method; assay type: in vivo; details: in vivo
# Method: (1): Insecticidal Activities to Aphids
# Aphis (Aphis craccivoral), which belongs to Homoptera and has a piercing-sucking mouthpart, is a common insect for agricultural plant. Aphis craccivoral was tested by immersion method.
# Procedure: exactly weighed various samples were independently added to N,N-dimethylformamide to form 10 g/L stock solutions. The stock solutions were diluted with 0.2 mL/L aqueous Triton X-100 solution to a concentration of 500 ppm. After stably sucking on bean sprout, the wingless adult aphis together with bean sprout were dipped into 500 ppm dilution, taken out after 5 seconds, and the excess dilution was sucked off with bibulous paper. The treated wingless adult aphis was incubated in clean vessel at a constant temperature of 23° C. Each concentration was repeated for 3 times and the control group was treated with 0.2mL/L aqueous Triton X-100 solution. The number of killed aphis was counted after 24 hours and the mortality was to calculated according to the following formula:
# (§1) Mortality (%)=(the number of the survival aphis in control group−the number of the survival aphis in the treatment group)/the number of the survival aphis in control group×100%
# [2] = test system: Nilaparvata lugens; assay: Insecticidal activities to plant hopper, spraying method; assay type: in vivo; details: in vivo
# Method: as §1
# (2): Insecticidal Activities to Plant hopper
# Plant hopper (Nilaparvata lugens), which belongs to Homoptera and has a piercing-sucking mouthpart, is a common insect for agricultural plant. Nilaparvata lugens was tested by spraying method.
# Procedure: the test compound was exactly formulated with acetone to form solutions having concentrations of 500, 250, 100, 50, 25, 12.5, 6.25, 3.13, 1.57 and 0.79 ppm, respectively. Aqueous acetone solution was used as control. Each treatment was repeated for 3 tumblers (3 times). Two ml of solution was sprayed uniformly to each tumbler with a mini manual sprayer. 10 insects were introduced to every basin 6 hours before spraying. Three series of experiments were conducted. The number of killed insects was counted after 24 hours to calculate the mortality according to the above mentioned formula.
Structure (SMILES),Aphis craccivoral Mortality (%) 500 ppm [1],Nilaparvata lugens Mortality (%) 500 ppm [2]
CCN(Cc1ccc(Cl)nc1)C(=NC)C(=Cc1ccc(Cl)s1)[N+](=O)[O-] [Compound 187],100%,100%
CCN(Cc1ccc(Cl)nc1)C(=NC)C(=Cc1ccc[nH]1)[N+](=O)[O-] [Compound 188],100%,100%
CCN=C(C(=Cc1ccco1)[N+](=O)[O-])N(CC)Cc1ccc(Cl)nc1 [Compound 189],86%,100%
CCN=C(C(=Cc1ccoc1)[N+](=O)[O-])N(CC)Cc1ccc(Cl)nc1 [Compound 190],87%,100%
CCN=C(C(=Cc1ccc([N+](=O)[O-])o1)[N+](=O)[O-])N(CC)Cc1ccc(Cl)nc1 [Compound 191],95%,100%
CCN=C(C(=Cc1ccc(Cl)o1)[N+](=O)[O-])N(CC)Cc1ccc(Cl)nc1 [Compound 192],97%,100%
CCN=C(C(=Cc1ccc(Br)o1)[N+](=O)[O-])N(CC)Cc1ccc(Cl)nc1 [Compound 193],89%,100%
CN=C(C(=C(C)c1ccc[nH]1)[N+](=O)[O-])N(C)Cc1ccc(Cl)nc1 [Compound 194],98%,100%
CCN(Cc1ccc(Cl)nc1)C(=NC)C(=C(C)c1ccoc1)[N+](=O)[O-] [Compound 196],100%,100%
CCN(Cc1ccc(Cl)nc1)C(=NC)C(=C(C)c1ccc([N+](=O)[O-])o1)[N+](=O)[O-] [Compound 197],98%,100%
CCN(Cc1ccc(Cl)nc1)C(=NC)C(=C(C)c1ccc(Cl)o1)[N+](=O)[O-] [Compound 198],86%,100%
CCN(Cc1ccc(Cl)nc1)C(=NC)C(=C(C)c1ccc(Br)o1)[N+](=O)[O-] [Compound 199],84%,100%
CCN(Cc1ccc(Cl)nc1)C(=NC)C(=C(C)c1cccs1)[N+](=O)[O-] [Compound 200],100%,100%
CCN(Cc1ccc(Cl)nc1)C(=NC)C(=C(C)c1ccsc1)[N+](=O)[O-] [Compound 201],100%,100%
CCN(Cc1ccc(Cl)nc1)C(=NC)C(=C(C)c1ccc([N+](=O)[O-])s1)[N+](=O)[O-] [Compound 202],100%,100%
CCN(Cc1ccc(Cl)nc1)C(=NC)C(=C(C)c1ccc(Cl)s1)[N+](=O)[O-] [Compound 203],100%,100%
CCN(Cc1ccc(Cl)nc1)C(=NC)C(=C(C)c1ccc[nH]1)[N+](=O)[O-] [Compound 204],92%,100%
CCN(C(=NC)C(=Cc1ccco1)[N+](=O)[O-])C(C)c1ccc(Cl)nc1 (stereo not drawn) [Compound 205],56%,87%
CCN(C(=NC)C(=Cc1ccoc1)[N+](=O)[O-])C(C)c1ccc(Cl)nc1 (stereo not drawn) [Compound 206],65%,44%
CCN(C(=NC)C(=Cc1ccc([N+](=O)[O-])o1)[N+](=O)[O-])C(C)c1ccc(Cl)nc1 (stereo not drawn) [Compound 207],94%,100%
CCN(C(=NC)C(=Cc1ccc(Cl)o1)[N+](=O)[O-])C(C)c1ccc(Cl)nc1 (stereo not drawn) [Compound 208],42%,100%

Structure (SMILES),Aphis craccivoral Mortality (%) 500 ppm [1],Nilaparvata lugens Mortality (%) 500 ppm [2]
CCN(C(=NC)C(=Cc1ccc(Br)o1)[N+](=O)[O-])C(C)c1ccc(Cl)nc1 (stereo not drawn) [Compound 209],88%,100%
CCN(C(=NC)C(=Cc1cccs1)[N+](=O)[O-])C(C)c1ccc(Cl)nc1 (stereo not drawn) [Compound 210],100%,100%
CCN(C(=NC)C(=Cc1ccc[nH]1)[N+](=O)[O-])C(C)c1ccc(Cl)nc1 (stereo not drawn) [Compound 211],73%,73%
CN=C(C(=C(C)c1ccc([N+](=O)[O-])o1)[N+](=O)[O-])N(C)C(C)c1ccc(Cl)nc1 (stereo not drawn) [Compound 212],96%,100%
CN=C(C(=C(C)c1ccsc1)[N+](=O)[O-])N(C)C(C)c1ccc(Cl)nc1 (stereo not drawn) [Compound 213],89%,68%
CN=C(C(=C(C)c1ccc([N+](=O)[O-])s1)[N+](=O)[O-])N(C)C(C)c1ccc(Cl)nc1 (stereo not drawn) [Compound 214],98%,100%
CN=C(C(=C(C)c1ccc(Cl)s1)[N+](=O)[O-])N(C)C(C)c1ccc(Cl)nc1 (stereo not drawn) [Compound 215],100%,100%
CN=C(C(=C(C)c1ccc[nH]1)[N+](=O)[O-])N(C)C(C)c1ccc(Cl)nc1 (stereo not drawn) [Compound 216],100%,100%
CN=C(C(=Cc1ccc([N+](=O)[O-])o1)[N+](=O)[O-])N(C)Cc1cnc(Cl)s1 [Compound 217],77%,43%
CN=C(C(=Cc1ccc(Cl)o1)[N+](=O)[O-])N(C)Cc1cnc(Cl)s1 [Compound 218],88%,86%
CN=C(C(=Cc1ccc(Br)o1)[N+](=O)[O-])N(C)Cc1cnc(Cl)s1 [Compound 219],87%,87%
CN=C(C(=Cc1cccs1)[N+](=O)[O-])N(C)Cc1cnc(Cl)s1 [Compound 220],80%,67%
CN=C(C(=Cc1ccsc1)[N+](=O)[O-])N(C)Cc1cnc(Cl)s1 [Compound 221],78%,87%
CN=C(C(=Cc1ccc([N+](=O)[O-])s1)[N+](=O)[O-])N(C)Cc1cnc(Cl)s1 [Compound 222],46%,67%
CN=C(C(=Cc1ccc(Cl)s1)[N+](=O)[O-])N(C)Cc1cnc(Cl)s1 [Compound 223],65%,53%
CN=C(C(=Cc1ccc[nH]1)[N+](=O)[O-])N(C)Cc1cnc(Cl)s1 [Compound 224],32%,52%
CCN(Cc1cnc(Cl)s1)C(=NC)C(=Cc1ccco1)[N+](=O)[O-] [Compound 225],90%,78%
CCN(Cc1cnc(Cl)s1)C(=NC)C(=Cc1ccoc1)[N+](=O)[O-] [Compound 226],68%,49%
CCN(Cc1cnc(Cl)s1)C(=NC)C(=Cc1ccc([N+](=O)[O-])o1)[N+](=O)[O-] [Compound 227],100%,100%
CCN(Cc1cnc(Cl)s1)C(=NC)C(=Cc1ccc(Cl)o1)[N+](=O)[O-] [Compound 228],100%,100%
CCN(Cc1cnc(Cl)s1)C(=NC)C(=Cc1ccc([N+](=O)[O-])s1)[N+](=O)[O-] [Compound 229],65%,75%
